The values that follow are results of earlier work, collected in patent US5385907A, “Ointments containing FK-506 or derivatives thereof” (priority 1990, dated 1995).

Structures are written as SMILES.

The conditions of the data set: dissolved in ethanol (EP-A-315978).

Regarding `C=CCC1C=C(C)CC(C)CC(OC)C2OC(O)(C(=O)C(=O)N3CCCCC3C(=O)OC(C(C)=CC3CCC(O)C(OC)C3)C(C)C(O)CC1=O)C(C)CC2OC` (stereo not shown) [FK 506 substance, 17-allyl-1,14-dihydroxy-12-[2-(4-hydroxy-3-methoxycyclohexyl)-1-methylvinyl]-23,25-dimethoxy-13,19,21,27-tetramethyl-11,28-dioxa-4-azatricyclo[22.3.1.0^4,9]octacos-18-ene-2,3,10,16-tetraone], the inflammatory inhibition result is “effective against inflammatory inhibition”.
